The source of these data is ChEMBL document CHEMBL1201862, “PubChem BioAssay data set” (2004).

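1) Cells in 96-well plates. 2) Compound, 48 h, 5 concentrations. 3) Linear interpolation between surrounding doses. 4) Unreached endpoint = highest concentration. GI50: concentration for 50% inhibition of growth.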 The source made the active and inactive calls. Rule as the data show it: active = GI50 up to about 1.1 µM and inactive = higher. Bounds are passed on as bounds.

Test systems include RPMI-8226; LOX IMVI; DMS-114; UACC-62; EKVX; OVCAR-4; SF-268; A549; HCC 2998; U-251; UO-31; SK-OV-3; COLO 205; ACHN.
What all share (assay): NCI tumour cell line growth inhibition, 48 h

As for `COc1cc2ccnc(-c3n[nH]c4cc(OC)c(OC)cc34)c2cc1OC`, the GI50 in the assay with RPMI-8226, in the assay on LOX IMVI, with DMS-114, with UACC-62, in the assay with EKVX and in the assay on OVCAR-4 was > 100 µM (inactive) each time. The GI50 in the assay on SF-268 is 62.4 µM (inactive); in the assay on A549, > 100 µM (inactive); with HCC 2998, > 100 µM (inactive); in the assay with U-251, > 100 µM (inactive); in the assay with UO-31, > 100 µM (inactive); in the assay with SK-OV-3, > 100 µM (inactive). For the same compound, the GI50 with COLO 205 and in the assay with ACHN was > 100 µM (inactive) throughout.

`CC(=O)/C(=N\O)C(=O)NCCc1ccccc1`: the GI50 in the assay with RPMI-8226 is 57.7 µM (inactive); in the assay with LOX IMVI, 41.8 µM (inactive); in the assay on DMS-114, 43.7 µM (inactive); in the assay on UACC-62, > 100 µM (inactive); with EKVX, > 100 µM (inactive); in the assay with OVCAR-4 it was > 100 µM (inactive). Further, the GI50 with SF-268 is > 100 µM (inactive); in the assay on A549, 98.6 µM (inactive); in the assay with HCC 2998, 66.5 µM (inactive); with U-251, 63.5 µM (inactive); in the assay on UO-31 it was > 100 µM (inactive); with SK-OV-3 it was > 100 µM (inactive). For the same compound, the GI50 with COLO 205 was 45.9 µM (inactive); in the assay on ACHN it was > 100 µM (inactive).

For `O=[N+]([O-])c1ccc(C(O)/C(=N/O)c2nc3ccc(Cl)cc3nc2O)cc1` (stereo not drawn), the GI50 in the assay with RPMI-8226, in the assay on LOX IMVI, in the assay on DMS-114, with UACC-62, in the assay with EKVX and in the assay with OVCAR-4 was > 100 µM (inactive) throughout. The GI50 in the assay on SF-268, in the assay on A549, in the assay on HCC 2998, in the assay with U-251, with UO-31 and with SK-OV-3 was > 100 µM (inactive) in each case. Further, the GI50 in the assay on COLO 205 and in the assay on ACHN was > 100 µM (inactive) in each case.

`CCOC(=O)/C([O-])=C(\C(=O)OCC)[n+]1c(C)n(C)c2ccccc21`: the GI50 with RPMI-8226, in the assay on LOX IMVI, in the assay on DMS-114, with UACC-62, in the assay with EKVX and with OVCAR-4 was > 100 µM (inactive) throughout. In addition, the GI50 in the assay on SF-268, in the assay with A549, in the assay with HCC 2998, in the assay with U-251, in the assay with UO-31 and with SK-OV-3 was > 100 µM (inactive) throughout. Besides, the GI50 in the assay with COLO 205 was > 100 µM (inactive).

`NC12CC3CC(C1)CC(C(=O)O)(C3)C2`: the GI50 in the assay on RPMI-8226, with LOX IMVI, in the assay with DMS-114, with UACC-62, in the assay on EKVX and with OVCAR-4 was > 100 µM (inactive) each time. In addition, the GI50 with SF-268, in the assay on A549, in the assay on HCC 2998, in the assay with U-251, with UO-31 and in the assay on SK-OV-3 was > 100 µM (inactive) throughout. In addition, the GI50 in the assay on ACHN was > 100 µM (inactive).

As for `O=C(c1nc2ccccc2nc1O)C(O)c1ccco1` (stereo not drawn), the GI50 was > 100 µM (inactive) in the assay on RPMI-8226; > 100 µM (inactive) with LOX IMVI; 52.6 µM (inactive) in the assay with DMS-114; 61.5 µM (inactive) in the assay with UACC-62; > 100 µM (inactive) in the assay on EKVX; > 100 µM (inactive) in the assay on OVCAR-4. Moreover, the GI50 was > 100 µM (inactive) with SF-268; > 100 µM (inactive) with A549; > 100 µM (inactive) in the assay on HCC 2998; > 100 µM (inactive) with U-251; 72.3 µM (inactive) with UO-31; > 100 µM (inactive) in the assay with SK-OV-3. The GI50 with COLO 205 was > 100 µM (inactive); in the assay on ACHN, 54.5 µM (inactive).

Consider `O=C(NO)C(=O)Nc1cc(Cl)ccc1Cl`, for which the GI50 in the assay on RPMI-8226 was > 100 µM (inactive); in the assay with LOX IMVI, 16.8 µM (inactive); in the assay on DMS-114, 69.3 µM (inactive); with UACC-62 it was > 100 µM (inactive); in the assay on EKVX it was > 100 µM (inactive); in the assay with OVCAR-4 it was > 100 µM (inactive). The GI50 was > 100 µM (inactive) in the assay on SF-268; > 100 µM (inactive) in the assay on A549; 78 µM (inactive) in the assay with HCC 2998; > 100 µM (inactive) with U-251; 22 µM (inactive) in the assay on UO-31; > 100 µM (inactive) in the assay with SK-OV-3. Moreover, the GI50 in the assay on COLO 205 and in the assay with ACHN was > 100 µM (inactive) in each case.

Consider `CC(C)(CN1C(=O)C(Cl)=C(Cl)C1=O)CN1C(=O)C(Cl)=C(Cl)C1=O`, for which the GI50 with RPMI-8226 is 1.71 µM (inactive); in the assay with LOX IMVI it was 12.2 µM (inactive); in the assay with DMS-114 it was 9.75 µM (inactive); in the assay on UACC-62 it was 14.1 µM (inactive); in the assay with EKVX, 19.9 µM (inactive); in the assay on OVCAR-4 it was 21.7 µM (inactive). Besides, the GI50 in the assay on SF-268 was 19.1 µM (inactive); with A549, 35.5 µM (inactive); with HCC 2998, 12 µM (inactive); in the assay with U-251, 18.1 µM (inactive); with UO-31, 31.6 µM (inactive); in the assay on SK-OV-3, 33.3 µM (inactive). In addition, the GI50 in the assay with COLO 205 is 3.23 µM (inactive); in the assay with ACHN it was 9.44 µM (inactive).

In the case of `Cn1cnc([N+](=O)[O-])c1Sc1nnc(-c2ccc(Cl)cc2)n1C`, the GI50 was 16.4 µM (inactive) in the assay on RPMI-8226; 7.67 µM (inactive) in the assay with LOX IMVI; 15.8 µM (inactive) in the assay with DMS-114; 15.5 µM (inactive) in the assay with UACC-62; 5.79 µM (inactive) with EKVX; 13.7 µM (inactive) in the assay on OVCAR-4. In addition, the GI50 was 20.3 µM (inactive) in the assay with SF-268; 48.9 µM (inactive) with A549; 17.9 µM (inactive) in the assay with HCC 2998; 16.3 µM (inactive) with U-251; 14.6 µM (inactive) in the assay with UO-31; 51.2 µM (inactive) in the assay on SK-OV-3. Moreover, the GI50 in the assay with COLO 205 was 11.9 µM (inactive); in the assay on ACHN, 15.1 µM (inactive).

With `C[N+](C)(Cc1ccc(NC(=O)CCCC(=O)ON2C(=O)CCC2=O)cc1)c1ccccc1`, the GI50 with RPMI-8226 is < 0.01 µM (active); with LOX IMVI it was < 0.01 µM (active); with DMS-114 it was > 1 µM (active); with UACC-62, < 0.01 µM (active); in the assay with EKVX, < 0.01 µM (active); in the assay with OVCAR-4 it was < 0.01 µM (active). The GI50 with SF-268, in the assay with A549, in the assay on HCC 2998, in the assay on U-251, in the assay with UO-31 and in the assay with SK-OV-3 was < 0.01 µM (active) each time. Also, the GI50 in the assay with COLO 205 and in the assay with ACHN was < 0.01 µM (active) in each case.
